Entries after “also recorded” stand apart in the source; their conditions may differ.
How the values were obtained:
[1] = tested on: pain associated with fibromyalgia; test: Combinatorial therapy of milnacipran and VRNT or virtual reality distraction therapy for fibromyalgia; type: in vivo, patient
From the text: In an exemplary embodiment, a combinatorial therapeutic system for treating fibromyalgia includes a serotonin-norepinephrine reuptake inhibitor (SNRI) and an artificial sensory experience. The SNRI can include milnacipran, specifically, and in some embodiments, the SNRI can include other SNRIs commonly prescribed to treat fibromyalgia (e.g., duloxetine). Similar to those combinatorial systems described above, the artificial sensory experience combined with the SNRI (preferably milnacipran) can include any of 2D/3D/4D artificial sensory experiences, holography, augmented reality, virtual reality, and/or mixed reality. In an exemplary embodiment, the artificial sensory experience is VRNT or virtual reality distraction therapy.
In some embodiments, the combinatorial treatment systems and methods for treating/mitigating pain associated with fibromyalgia can have similar results to those illustrated and described with respect to FIGS. 5A, 5B, 5C, 6A, and 6B.

[2] = tested on: mACh receptors; conditions: cited from earlier work
[3] = tested on: benzodiazepine binding sites; conditions: cited from earlier work
[4] = target: D2 receptors (Homo sapiens, UniProt P14416); conditions: cited from earlier work
[5] = target: D1 receptors (Homo sapiens, UniProt P21728); conditions: cited from earlier work
[6] = target: H1 receptors (Homo sapiens, UniProt P35367); conditions: cited from earlier work
[7] = tested on: opioid binding sites; conditions: cited from earlier work
[8] = tested on: α1 receptors; conditions: cited from earlier work
[9] = tested on: pain; test: Combinatorial therapy of opioid analgesic and VRNT: patient's amount of pain over time (FIGS. 5A-5C); type: in vivo; conditions: opioid analgesic in combination with VRNT, potential patient responses
From the text: FIGS. 5A-5C illustrate exemplary graphs of potential effects of combinatorial therapeutic systems/methods employing tapentadol and VRNT on a patient's amount of pain over time; and
The synergistic effects of the disclosed combinatorial therapeutic systems/methods can be exemplified in a plurality of responses. For example, FIGS. 5A-5C illustrate a combinatorial therapy using tapentadol (as the opioid analgesic) and VRNT (as the artificial sensory experience) with different potential patient responses. As many, if not all, patients may experience the synergistic benefits afforded by the disclosed combinatorial therapeutic systems/methods as an average benefit, the individual-specific responses may be different.

[10] = relative to tramadol and morphine; cited from earlier work
[11] = tested on: pain; conditions: reported; cited from earlier work

Chain of D1 receptors (P21728 whole entry): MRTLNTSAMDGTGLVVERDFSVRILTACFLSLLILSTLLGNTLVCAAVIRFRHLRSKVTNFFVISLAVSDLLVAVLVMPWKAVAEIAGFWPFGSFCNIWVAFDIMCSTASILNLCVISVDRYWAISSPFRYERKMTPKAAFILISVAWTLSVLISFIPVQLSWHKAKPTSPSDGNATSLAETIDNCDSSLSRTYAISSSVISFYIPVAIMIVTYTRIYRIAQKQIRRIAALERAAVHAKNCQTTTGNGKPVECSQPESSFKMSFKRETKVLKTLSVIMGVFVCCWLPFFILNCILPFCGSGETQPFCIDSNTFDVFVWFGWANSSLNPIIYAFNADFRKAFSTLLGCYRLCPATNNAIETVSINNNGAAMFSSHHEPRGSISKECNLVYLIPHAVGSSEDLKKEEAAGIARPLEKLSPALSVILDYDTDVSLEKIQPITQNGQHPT
Chain of H1 receptors (P35367 whole entry): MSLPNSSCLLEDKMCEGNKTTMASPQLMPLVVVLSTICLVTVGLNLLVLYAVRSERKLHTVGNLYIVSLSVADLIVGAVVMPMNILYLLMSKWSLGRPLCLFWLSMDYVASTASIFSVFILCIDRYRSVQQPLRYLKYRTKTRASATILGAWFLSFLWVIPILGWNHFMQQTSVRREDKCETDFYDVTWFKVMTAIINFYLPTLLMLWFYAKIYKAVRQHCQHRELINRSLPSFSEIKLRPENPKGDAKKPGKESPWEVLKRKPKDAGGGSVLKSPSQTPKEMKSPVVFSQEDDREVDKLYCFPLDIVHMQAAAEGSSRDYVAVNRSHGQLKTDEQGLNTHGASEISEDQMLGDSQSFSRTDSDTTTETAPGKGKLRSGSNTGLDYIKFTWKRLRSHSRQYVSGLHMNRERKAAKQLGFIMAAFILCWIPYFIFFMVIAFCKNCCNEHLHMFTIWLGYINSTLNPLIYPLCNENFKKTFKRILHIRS
Chain of D2 receptors (P14416 whole entry): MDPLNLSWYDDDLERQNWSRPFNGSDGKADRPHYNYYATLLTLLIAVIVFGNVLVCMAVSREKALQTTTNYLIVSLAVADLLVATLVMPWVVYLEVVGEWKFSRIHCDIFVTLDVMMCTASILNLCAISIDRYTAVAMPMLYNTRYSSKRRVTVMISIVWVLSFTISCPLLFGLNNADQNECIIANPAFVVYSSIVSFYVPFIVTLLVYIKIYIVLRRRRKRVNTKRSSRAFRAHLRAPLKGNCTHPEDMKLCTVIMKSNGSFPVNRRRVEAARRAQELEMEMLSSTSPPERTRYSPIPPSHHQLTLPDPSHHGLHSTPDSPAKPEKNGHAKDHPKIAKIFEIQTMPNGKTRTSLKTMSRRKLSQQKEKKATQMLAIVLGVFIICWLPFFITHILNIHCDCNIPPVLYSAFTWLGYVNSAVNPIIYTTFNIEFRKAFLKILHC

Compound | pain over time [1] | actions on mACh receptors [2] | actions on benzodiazepine binding sites [3] | actions on D2 receptors [4] | actions on D1 receptors [5] | actions on H1 receptors [6] | actions on opioid binding sites [7] | actions on α1 receptors [8] | patient's amount of pain over time [9] | potency [10] | pain reduction / efficacy versus placebo [11]
CCN(CC)C(=O)C1(c2ccccc2)CC1CN (centres unmarked) [milnacipran] | decrease in pain over time | no significant actions | no significant actions | no significant actions | no significant actions | no significant actions | no significant actions | no significant actions | – | – | –
CC[C@@H](c1cccc(O)c1)[C@@H](C)CN(C)C [tapentadol] | – | – | – | – | – | – | – | – | constant or linear decrease in pain over time; also recorded: cyclical decrease and increase in pain levels over time with an overall decreasing pain level; also recorded: step-wise reduction in pain levels | somewhere between tramadol, another synthetic opioid, and morphine | limited efficacy beyond placebo; also recorded: only marginal incremental pain reduction versus placebo

From US11717639B2, “Combinatorial therapeutic systems and methods” (Cognifisense, Inc., priority 2018, dated 2023)
